What was measured:
[1] = system: human large intestine epithelial cells (HT29 cells); experiment: Hydrogen peroxide induced aging of human large intestine epithelial cells, MTS assay (Test Examples 16-18); format: cell-based; details: for suppression of cellular aging (MTS value, OD 490 nm): hydrogen peroxide 10 μM 15 min
Description: Human large intestine epithelial cells (HT29 cells) were experienced cellular aging (decline in mitochondrial activity due to injury, or a drop in the MTS value once cell death occurs) due to stimulation by the hydrogen peroxide when treated with hydrogen peroxide, and it was investigated whether this process is affected by treatment with the hyaluronic acid fragment. Specifically, the following test was performed.
Using a DMEM culture medium (made by Wako Pure Chemical Industries, Ltd.), human large intestine epithelial cells (HT29 cells) were cultured by usual methods at 37° C. under 5% CO2. Hydrogen peroxide was added to the culture medium to a final concentration of 10 μM to bring about stimulation for a 15-minute period, and the culture broth was then transferred to DMEM culture medium containing no hyaluronic acid fragments; to DMEM culture medium containing hyaluronic acid fragment (4mer) in a final concentration of 100 ng/ml; or to DMEM culture medium containing the hyaluronic acid fragment (4mer) plus TLR4/MD2 in a final concentration of 10 μg/ml, and cultured for 3 hours.
After 3 hours had passed, an MTS assay was performed. On the basis of the action, in which MTS is converted to formazan by dehydrogenation in the mitochondria of the cell, OD 490 nm was measured to measure mitochondrial function.
Using hyaluronic acid fragment (4mer), hyaluronic acid fragment (L4mer) and hyaluronic acid fragment (L3mer) as test substances, tests similar to those of Test Example 16 were performed, except that the culture time following transfer to the culture medium containing the test substance was one hour.
Tests similar to those of Test Example 16 were performed, except for using hyaluronic acid fragment (L4mer), and hyaluronic acid fragment (L3mer) as test substances.

[2] = system: sirtuin enzymatic activity (sirt1 enzymatic activity); experiment: Sirtuin enzymatic activity in cell solution of human epidermal keratinocytes, CycLex SIRT1/Sir2 Deacetylase Fluorometric Assay Kit (Test Example 2); format: cell-based; details: 10 ng/ml final concentration; cell crude extract
Description: Human epidermal keratinocytes were treated in the same manner as in Test Example 1, except that the final concentration of the hyaluronic acid fragment was 10 ng/ml, the size thereof being four sugar units (4mer), six sugar units (6mer), or 10 sugar units (10mer), while measuring the sirtuin enzymatic activity (sirt1 enzymatic activity) in the cell solution thereof. For purposes of comparison, 10 kDa or 900 kDa hyaluronic acid, and resveratrol, a known sirtuin activator, were likewise tested at 10 ng/ml final concentration. A human sirtuin recombinant protein (recombinant human sirt1) produced through genetic recombination techniques was used as a substance for verification of the measurement system. Sirtuin enzymatic activity in the cell crude extract was measured with the CycLex SIRT1/Sir2 Deacetylase Fluorometric Assay Kit (trade name of CycLex), following the protocol of the kit.

| Compound | suppression of cellular aging (MTS value, OD 490 nm) ([1]; then 100 ng/ml for 3 hours) | suppression of cellular aging (MTS value, OD 490 nm) ([1]; then test substance for one hour) | suppression of cellular aging with TLR4/MD2 added (MTS) ([1]; hydrogen peroxide 10 μM, 100 ng/ml plus TLR4/MD2 10 μg/ml, 3 hours) | sirtuin enzymatic activity (sirt1 enzymatic activity) compared with negative control [2] |
| --- | --- | --- | --- | --- |
| CC(=O)NC1C(O[C@@H]2OC(C(=O)O)[C@@H](O[C@@H]3OC(CO)[C@@H](O)C(O[C@@H]4OC(C(=O)O)[C@@H](O)C(O)C4O)C3NC(C)=O)C(O)C2O)[C@H](O)C(CO)O[C@H]1OCCCN=[N+]=[N-] (stereo partly shown) [L4mer] | showed effect in suppressing cellular aging | showed effect in suppressing cellular aging | inhibited by the addition of TLR4/MD2 | – |
| Oc1ccc(C=Cc2cc(O)cc(O)c2)cc1 [resveratrol, reference compound] | – | – | – | No change was observed |
